Experimental data from patent publication US8168212B2, “Topical compositions comprising non-proteogenic amino acids and methods of treating skin” (Avon Products, Inc, priority 2007, dated 2012).

Tests used:
calcineurin = test: Ex-vivo DiFMUP phosphatase assay of calcineurin activity; format: biochemical
Procedure: Ex-vivo phosphatase assay: The modulation of calcineurin activity was monitored using a DiFMUP (6,8-difluoro-7-hydroxy-4-methylcoumarin phosphate) phosphatase assay well characterized in the art (see, e.g., Wegner et al., 2007, Methods Mol. Biol. 365:61-69, hereby incorporated by reference in its entirety). Dephosphorylation of DiFMUP leads to the formation of a highly fluorescent and stable product: […].
Varying concentrations of L-4 Thiazolylalanine were added to a reaction buffer consisting of 50 mM Tris-HCL, pH 7.4, 0.0125% BSA, 0.1 mM CaCl, 400 U/ml calmodulin and 1 mM NiCl. The L-4 Thiazolylalanine/reaction buffer mixture was incubated at 37° C. for 30 min. DiFMU substrate was then added to a concentration of 10 μM, and the mixture returned to 37° C. incubation for a further 15 min. Fluorescence intensity was determined on a Spectrofluorometer.

β1 integrin = test: Whole cell ELISA of β1 integrin expression in human dermal fibroblasts; format: cell-based; details: 0.01% (w/v), 24 hours
Procedure: Cell culture: Human dermal fibroblasts (Cascade Biologics) were cultured in growth medium (DMEM, 5% FBS, 1% L-Glut, and 1% antibiotics) overnight in 60 mm dishes at 3.5×10^5 cells/ml. Cells were treated with test active or vehicle control diluted in growth medium and incubated for 24 hours at 37° C.
Whole cell ELISA: A B1 integrin kit from Chemicon International was used to assay the expression of B1 integrin on the cell surface following treatment with L-4 thiazolylalanine Medium was aspirated and plates were incubated at 37° C. with Cell Dissociation Buffer (provided with the kit) for 20-25 minutes, cells were centrifuged and resuspended in DMEM without supplements. 100 μl of the cell suspension was added to microtiter plates precoated with a murine anti-human β1 antibody (Chemicon International) that had been blocked for non-specific binding, and the plates incubated at 37° C. for 2 h. Adherent cells were quantitated by a cell staining kit (Chemicon International) according to manufacturer's instructions. Briefly, plates were washed in PBS and adherent cells stained by incubation for 5 min. at room temperature in the kit staining solution. […] Extraction buffer was then added to each well and the plate read at 570 nm on a spectrophotometer.
The percent change in β1 integrin expression was calculated according to the formula: […]

fibronectin = test: Competitive inhibition ELISA of fibronectin in conditioned media of human dermal fibroblasts; format: cell-based; details: 72 hours, P < 0.05
Procedure: Cell culture: Human dermal fibroblasts (Cascade Biologics) were cultured in 12-well tissue culture plates in growth medium (DMEM, 5% FBS, 1% L-Glut, and 1% antibiotics) and incubated for 24 hours at 37° C. Cells treated with test active diluted in growth medium and incubated for 72 hours at 37° C., after which conditioned media was collected and assayed for the presence of fibronectin. […].
Competitive inhibition ELISA: The presence of fibronectin in the test samples was assayed by a competitive ELISA kit (Chemicon International). Briefly, test and control samples of conditioned media were incubated with a HRP-conjugated, rabbit polyclonal anti-human fibronectin antibody at room temperature for about 10 minutes. The sample/antibody mixture was then transferred to a microtiter plate precoated with a standard amount of human fibronectin that had been blocked for non-specific binding. The plate was incubated for one hour at room temperature, followed by a PBS wash and detection of bound antibody (i.e., detection of bound HRP) by routine methods known in the art. The amount of bound antibody is inversely proportional to the amount of fibronectin in the sample.
The percent change in fibronectin expression due to L-4 Thiazolylalanine treatment was calculated according to the formula: […]

CGRP = CGRP enzyme immunoassay of conditioned medium of PC-12 cells; format: cell-based, rat; details: 0.01%, 24 h, p<0.05
Procedure: Cell culture: PC-12 cells were cultured in FK12 medium supplemented with nerve growth factor according to routine methods known in the art. PC12 cells are derived from a rat pheochromocytoma and terminally differentiate on exposure to nerve growth factor. Once the cells begin to differentiate, they express CGRP. Cultures were incubated in medium containing L-4 Thiazolylalanine for another 24 h. after which conditioned medium was collected and assayed for the presence of CGRP.
CGRP Immunoassay: The presence of CGRP in the test samples was assayed by a sandwich ELISA immunoassay kit. Briefly, test and control samples of conditioned media are mixed with an anti-CGRP antibody conjugated to acetylcholinesterase (the “tracer antibody”), and the mixtures added to plates pre-coated with a monoclonal anti-CGRP antibody (binding to a different epitope of CGRP than the tracer antibody) that had been blocked for non-specific binding. The samples were incubated in the plates and the plates washed and the bound acetylcholinesterase activity determined using Ellman's reagent according to routine methods known in the art. The absorbance of the reagent is directly proportional to the concentration of CGRP in the sample.
The percent change in CGRP expression due to L-4 Thiazolylalanine treatment was calculated according to the formula: […]

[1] = system: LOXL1 regulatory elements (promoter region of the LOXL1 gene); test: LOXL1 promoter luciferase-reporter assay in transfected fibrosarcoma cells; format: cell-based, human; details: 1 μg/ml, 24 h, HTI080 cells, triplicate tests, p<0.05
Source text: Vector construction, transfection and expression: The promoter region of the LOXL1 gene was isolated and cloned into the pGL3 Luciferase reporter plasmid (Promega) by standard methods known in the art and according to manufacturer's instructions. The LOXL1/pGL3 vector and the control vector pRL-NULL (Promega), containing no regulatory elements, were contransfected into the human fibrosarcoma line HTI080 using LipofectAMINE™ LTX Reagent (Invitrogen) according to manufacturer's directions.
Transfected cells were allowed to recover for 24 h. The culture medium was then replaced with fresh medium containing various concentrations of L-4 Thiazolylalanine, and the transfected cells cultured for an additional 24 h.
The cultures were subsequently washed with PBS and exposed to 100 μl cell lysis buffer/25 cm^2 culture area and gently shaken at room temperature for 30 min. The culture flasks containing the cell lysate were then immediately placed at −80° C.
The activity of the reporter gene, firefly luciferase, was determined according to the manufacturer's instructions (Dual-Luciferase® Reporter Assay System, Promega). Briefly, the activity of the reporter gene is determined relative to that of a control vector encoding a second luciferase gene, that from Renilla reniformis. […]

human skin = test: Human clinical patch study, histology of skin samples (Trichrome collagen and Alcian blue GAG staining); format: in vivo; details: 0.01% solution, topical semi-occlusive patch on outer forearm, 15 applications
Procedure: In order to ascertain the effect of L-4 thiazolylalanine on collagen levels in human skin in vivo, a test was conducted on about 25 women aged 35-65 years. This human clinical study was approved by an Institutional Review Board and informed consent from the subjects was obtained prior to commencement of the study. The study was conducted in accordance with Title 21 of the Code of Federal Regulations, parts 50 and 56.
A solution of 0.01% L-4 Thiazolylalanine was made up in a vehicle of Propylene glycol:Ethanol:Water at a ratio of 70:20:10. The experimental design of the test was as follows: Thiazolylalanine solution or the vehicle solution without thiazolylalanine was applied to the outer forearm on a 2×2 area of skin (@2 mg/cm2) under a semi-occlusive patch for 24 hours, after which the patch was removed and a fresh patch was applied. This was repeated for 5 days (Monday-Friday), then subjects were rested for the weekend. Patch application was continued in the same manner for the next two weeks, for a total of 15 applications. […] The intensity of the collagen and GAG staining was assessed visually under the microscope. […]

N[C@@H](Cc1cscn1)C(=O)O [L-4 Thiazolylalanine, L-4-thiazolylalanine]
increase of calcineurin activity (calcineurin; 0.0001% weight/volume (lowest concentration tested)): 6% | decrease of calcineurin activity (calcineurin; 0.001% concentration): 11% | decrease of calcineurin activity (calcineurin; 0.01% concentration): 63% | IC-50 (calcineurin activity), estimated (calcineurin; estimated): ~0.064% | increase in the expression of B1 integrin (β1 integrin): 225% | Percent Change in fibronectin expression (fibronectin; Concentration 0.00001%): 54.34% (P < 0.05) | Percent Change in fibronectin expression (fibronectin; Concentration 0.0001%): 31.03% (P < 0.05) | Percent Change in fibronectin expression (fibronectin; Concentration 0.001%): 36.11% (P < 0.05) | increase in expression of CGRP (CGRP): 69.93% | increase in expression of the reporter gene [1]: 57% | subjects with an increase in GAG staining relative to skin treated with the vehicle (human skin; 13/21 subjects): 62% | subjects with increased collagen staining in treated sites versus vehicle treated site (human skin; 18/21 subjects): 86%
